This experiment addresses human TYK2 (JH2domain-pseudokinase) (Homo sapiens (Human), UniProt P29597). In words: TYK2 JH2 Domain Binding Assay (KINOMEscan, DiscoveRx). As to conditions: 11-point dilution, duplicate. Put shortly: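 TYK2 JH2 (G556–D888)–NFkB DBD fusion, DNA-tagged, from HEK293 extracts (<0.1 nM) competed against immobilised biotinylated ligand for 1 h at room temperature, 0.9% DMSO. Bead-retained kinase quantified by qPCR; Kd from 11-point 3-fold series (top 30,000 nM, duplicate), Hill fit with slope −1.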
Chain of human TYK2 (JH2domain-pseudokinase) (P29597 556-888): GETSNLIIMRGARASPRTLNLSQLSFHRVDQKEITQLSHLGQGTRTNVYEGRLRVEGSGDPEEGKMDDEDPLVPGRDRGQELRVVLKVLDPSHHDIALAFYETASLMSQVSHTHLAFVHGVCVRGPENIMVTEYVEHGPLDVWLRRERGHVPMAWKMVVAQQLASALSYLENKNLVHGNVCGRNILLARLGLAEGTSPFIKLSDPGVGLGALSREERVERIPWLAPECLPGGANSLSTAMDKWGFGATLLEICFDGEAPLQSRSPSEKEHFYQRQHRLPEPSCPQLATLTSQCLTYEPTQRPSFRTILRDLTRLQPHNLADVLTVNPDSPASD
The term Kd denotes the equilibrium constant for the complex coming apart. The low end stands for a tighter complex, the high end for a looser complex. In the case of `Cc1nc2c(Nc3ccc(-c4nc(C)c(C)s4)cc3S(C)(=O)=O)cc(Nc3cnc(C)c(C)n3)nc2[nH]1` [I-466, N5-(5,6-dimethylpyrazin-2-yl)-N7-(4-(4,5-dimethylthiazol-2-yl)-2-(methylsulfonyl)phenyl)-2-methyl-3H-imidazo[4,5-b]pyridine-5,7-diamine], the Kd lay within 0.5 to 1 nM. For `Cc1cc(Nc2cc(Nc3ccc(-c4nc(C)cs4)cc3S(C)(=O)=O)c3nc(C(F)F)[nH]c3n2)nc(C)n1` [I-467, 2-(difluoromethyl)-N5-(2,6-dimethylpyrimidin-4-yl)-N7-(2-(methylsulfonyl)-4-(4-methylthiazol-2-yl)phenyl)-3H-imidazo[4,5-b]pyridine-5,7-diamine], the Kd lay in the range of 0.1 to 0.5 nM. As for `Cc1cc(Nc2cc(Nc3ccc(-c4nc(C)cs4)cc3S(C)(=O)=O)c3nc(C)[nH]c3n2)nc(C)n1` [I-468, N5-(2,6-dimethylpyrimidin-4-yl)-2-methyl-N7-(2-(methylsulfonyl)-4-(4-methylthiazol-2-yl)phenyl)-3H-imidazo[4,5-b]pyridine-5,7-diamine], the figure is 0.1 to 0.5 nM.

Turning to `Cc1cc(Nc2cc(Nc3ccc(-c4nc(C)c(C)s4)cc3S(C)(=O)=O)c3nc(C(F)F)[nH]c3n2)nc(C)n1` [I-469, 2-(difluoromethyl)-N5-(2,6-dimethylpyrimidin-4-yl)-N7-(4-(4,5-dimethylthiazol-2-yl)-2-(methylsulfonyl)phenyl)-3H-imidazo[4,5-b]pyridine-5,7-diamine], the Kd is 0.5 to 1 nM. To `Cc1cc(Nc2cc(Nc3ccc(-c4nc(C)c(C)s4)cc3S(C)(=O)=O)c3nc(C)[nH]c3n2)nc(C)n1` [I-470, N5-(2,6-dimethylpyrimidin-4-yl)-N7-(4-(4,5-dimethylthiazol-2-yl)-2-(methylsulfonyl)phenyl)-2-methyl-3H-imidazo[4,5-b]pyridine-5,7-diamine] belongs 0.1 to 0.5 nM; to `CC1(C)COC(c2ccc(Nc3cc(NC(=O)[C@H]4C[C@H]4F)nc4[nH]c(C(F)F)nc34)c(S(C)(=O)=O)c2)=N1` [I-471, (1R,2R)—N-(2-(difluoromethyl)-7-((4-(4,4-dimethyl-4,5-dihydrooxazol-2-yl)-2-(methylsulfonyl)phenyl)amino)-3H-imidazo[4,5-b]pyridin-5-yl)-2-fluorocyclopropane-1-carboxamide], 1 to 10 nM. Take `Cc1nc2c(Nc3ccc([C@@H]4CCCO4)cc3S(C)(=O)=O)cc(NC(=O)C3CC3)nc2[nH]1` [I-472, (S)—N-(2-methyl-7-((2-(methylsulfonyl)-4-(tetrahydrofuran-2-yl)phenyl)amino)-3H-imidazo[4,5-b]pyridin-5-yl)cyclopropanecarboxamide]: the Kd was in the range of 0.1 to 0.5 nM. `Cc1nc2c(Nc3ccc([C@H]4CCCO4)cc3S(C)(=O)=O)cc(NC(=O)C3CC3)nc2[nH]1` [I-473, (R)—N-(2-methyl-7-((2-(methylsulfonyl)-4-(tetrahydrofuran-2-yl)phenyl)amino)-3H-imidazo[4,5-b]pyridin-5-yl)cyclopropanecarboxamide] returned a Kd of less than 0.1 nM.

Turning to `Cc1nc2c(Nc3ccc([C@H]4CCCCO4)cc3S(C)(=O)=O)cc(Nc3cnc(C)c(C)n3)nc2[nH]1` [I-474, (R)—N5-(5,6-dimethylpyrazin-2-yl)-2-methyl-N7-(2-(methylsulfonyl)-4-(tetrahydro-2H-pyran-2-yl)phenyl)-3H-imidazo[4,5-b]pyridine-5,7-diamine], the Kd was less than 0.1 nM. To `Cc1nc2c(Nc3ccc([C@@H]4CCCCO4)cc3S(C)(=O)=O)cc(Nc3cnc(C)c(C)n3)nc2[nH]1` [I-475, (S)—N5-(5,6-dimethylpyrazin-2-yl)-2-methyl-N7-(2-(methylsulfonyl)-4-(tetrahydro-2H-pyran-2-yl)phenyl)-3H-imidazo[4,5-b]pyridine-5,7-diamine] belongs 0.1 to 0.5 nM. Take `Cc1csc(-c2ccc(Nc3cc(Nc4cc5n(n4)CCOC5)nc4[nH]c(C(F)F)nc34)c(S(C)(=O)=O)c2)n1` [I-476]: the Kd was 0.1 to 0.5 nM. To `Cc1csc(-c2ccc(Nc3cc(Nc4cc5n(n4)CCOC5)nc4[nH]c(C)nc34)c(S(C)(=O)=O)c2)n1` [I-477, N5-(6,7-dihydro-4H-pyrazolo[5,1-c][1,4]oxazin-2-yl)-2-methyl-N7-(2-(methylsulfonyl)-4-(4-methylthiazol-2-yl)phenyl)-3H-imidazo[4,5-b]pyridine-5,7-diamine] belongs 0.1 to 0.5 nM. Consider `Cc1nc2c(Nc3ccc(-c4nn(C)cc4C)cc3S(C)(=O)=O)cc(NC(=O)[C@@H]3CC3(C)C)nc2[nH]1` [I-478, (R)—N-(7-((4-(1,4-dimethyl-1H-pyrazol-3-yl)-2-(methylsulfonyl)phenyl)amino)-2-methyl-3H-imidazo[4,5-b]pyridin-5-yl)-2,2-dimethylcyclopropane-1-carboxamide], for which the Kd lay in the range of 1 to 10 nM. The compound `Cc1nc2c(Nc3ccc(-c4nn(C)cc4C)cc3S(C)(=O)=O)cc(NC(=O)[C@H]3CC3(C)C)nc2[nH]1` [I-479, (S)—N-(7-((4-(1,4-dimethyl-1H-pyrazol-3-yl)-2-(methylsulfonyl)phenyl)amino)-2-methyl-3H-imidazo[4,5-b]pyridin-5-yl)-2,2-dimethylcyclopropane-1-carboxamide] showed a Kd of 1 to 10 nM. To `Cc1nc(-c2ccc(Nc3cc(Nc4cc5n(n4)CCOC5)nc4[nH]c(C(F)F)nc34)c(S(C)(=O)=O)c2)sc1C` [I-480, 2-(difluoromethyl)-N5-(6,7-dihydro-4H-pyrazolo[5,1-c][1,4]oxazin-2-yl)-N7-(4-(4,5-dimethylthiazol-2-yl)-2-(methylsulfonyl)phenyl)-3H-imidazo[4,5-b]pyridine-5,7-diamine] belongs 0.1 to 0.5 nM; to `Cc1nc(-c2ccc(Nc3cc(NC(=O)C4CC4)nc4[nH]c(C(F)F)nc34)c(S(C)(=O)=O)c2)c(C)s1` [I-481, N-(2-(difluoromethyl)-7-((4-(2,5-dimethylthiazol-4-yl)-2-(methylsulfonyl)phenyl)amino)-3H-imidazo[4,5-b]pyridin-5-yl)cyclopropanecarboxamide], 0.1 to 0.5 nM. The compound `CC1(C)CSC(c2ccc(Nc3cc(NC(=O)[C@H]4CC4(F)F)nc4[nH]c(C(F)F)nc34)c(S(C)(=O)=O)c2)=N1` [I-482, (R)—N-(2-(difluoromethyl)-7-((4-(4,4-dimethyl-4,5-dihydrothiazol-2-yl)-2-(methylsulfonyl)phenyl)amino)-3H-imidazo[4,5-b]pyridin-5-yl)-2,2-difluorocyclopropane-1-carboxamide] displayed a Kd of 1 to 10 nM. As for `CC1(C)CSC(c2ccc(Nc3cc(NC(=O)[C@@H]4CC4(F)F)nc4[nH]c(C(F)F)nc34)c(S(C)(=O)=O)c2)=N1` [I-483, (S)—N-(2-(difluoromethyl)-7-((4-(4,4-dimethyl-4,5-dihydrothiazol-2-yl)-2-(methylsulfonyl)phenyl)amino)-3H-imidazo[4,5-b]pyridin-5-yl)-2,2-difluorocyclopropane-1-carboxamide], the figure is greater than 10 nM. `Cc1nc2c(Nc3ccc(C4=NC(C)(C)CS4)cc3S(C)(=O)=O)cc(NC(=O)[C@H]3CC3(F)F)nc2[nH]1` [I-484, (R)—N-(7-((4-(4,4-dimethyl-4,5-dihydrothiazol-2-yl)-2-(methylsulfonyl)phenyl)amino)-2-methyl-3H-imidazo[4,5-b]pyridin-5-yl)-2,2-difluorocyclopropane-1-carboxamide]: the Kd was 1 to 10 nM.

Source of the values: patent publication US10647713B2 (Nimbus Lakshmi, Inc., priority 2016, dated 2020).
